Source: patent US12357603B2, “Acyl sulfonamides for treating cancer” (Bayer Aktiengesellschaft, priority 2019, dated 2025)
Read-outs that look alike come from different tables or passages of the source.

How the values were obtained:
[1] = target: Recombinant human His-tagged Kat6a protein (amino acids 194-810) (Homo sapiens (Human), UniProt Q92794); experiment: Kat6a activity assay (TR-FRET, acetylation of biotinylated Histone-H4-derived peptide); type: biochemical; details: 60 mins at 22° C., read-out: KAT6A-DPF/HAT domain IC50 [mol/l] (arithmetic mean)
Recombinant human His-tagged Kat6a protein (amino acids 194-810), sequence (Q92794 194-810): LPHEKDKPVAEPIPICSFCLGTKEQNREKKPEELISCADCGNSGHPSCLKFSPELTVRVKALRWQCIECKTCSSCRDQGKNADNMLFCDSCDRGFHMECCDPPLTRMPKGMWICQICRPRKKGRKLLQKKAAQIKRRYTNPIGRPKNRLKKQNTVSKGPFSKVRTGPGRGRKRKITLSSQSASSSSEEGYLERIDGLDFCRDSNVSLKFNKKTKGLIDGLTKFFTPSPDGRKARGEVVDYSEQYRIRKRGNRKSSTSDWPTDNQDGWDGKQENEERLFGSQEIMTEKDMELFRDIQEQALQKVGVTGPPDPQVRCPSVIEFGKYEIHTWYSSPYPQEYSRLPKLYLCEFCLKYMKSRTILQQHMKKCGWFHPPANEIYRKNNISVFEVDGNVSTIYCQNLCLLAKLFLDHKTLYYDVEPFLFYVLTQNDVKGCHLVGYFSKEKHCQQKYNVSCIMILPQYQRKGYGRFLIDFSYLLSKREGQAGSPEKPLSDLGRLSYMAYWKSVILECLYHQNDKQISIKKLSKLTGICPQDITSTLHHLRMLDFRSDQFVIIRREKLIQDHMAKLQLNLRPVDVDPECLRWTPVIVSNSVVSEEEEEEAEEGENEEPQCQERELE
Text: Kat6a inhibitory activities of the compounds described in the present invention were quantified using a Fluorescence Resonance Energy Transfer (TR-FRET) assay which measures acetylation of a synthetic, biotinylated Histone-H4-derived peptide by the enzyme.
Recombinant human His-tagged Kat6a protein (amino acids 194-810), was purified in-house from Baculovirus-infected insect cells (Sf9). Histone H4 peptide (amino acids 1-24, […]-VLRD-K(Btn)-amide), which was used as substrate, was synthesized by Biosyntan GmbH, Berlin, Germany. Acetyl Coenzyme A was purchased from Sigma-Aldrich (#A-2056).
Kat6a was incubated for 60 mins at 22° C. in the presence of different concentrations of test substances (0 μM, and within the range 0.01-20 μM) in assay buffer [25 mM Tris/HCl pH 8, 1 mM EGTA, 2.5 mM Glutathion, 0.02% Chicken Albumin, 0.05% Pluronic F127, 25 mM NaCl, 220 nM H4 peptide and 600 nM Acetyl Coenzym A].
The reaction was stopped by addition of Detection Solution (25 mM HEPES pH 7.5, 0.1% BSA, 22 nM SAXL665 (Cisbio #610SAXLE), 100 μM Anacardic Acid (Enzo #ALX-270-381), 1 nM Anti-Histone H4 (ACETYL K8) Antibody (ABCAM #AB15823) and 0.5 nM Anti-Rabbit IgG Eu (Perkin Elmer #AD0083).
The fluorescence emission at 620 nm and 665 nm after excitation at 330-350 nm was measured in a TR-FRET measuring instrument, for instance a Rubystar or a Pherastar (both from BMG Lab Technologies, Offenburg, Germany) or a Viewlux (Perkin-Elmer). The ratio of the emission at 665 nm and at […] was used as indicator of the amount of acetylated peptide.
The resulting data (ratio) were normalized, taking 0% inhibition as the mean value of control measurements where all reagents were included. In this case 50 nl DMSO were used instead of compounds. […] IC50 values were determined by regression analysis based on a 4 parameter equation (minimum, maximum, ICM, Hill; Y=Max+(Min−Max)/(1+(X/ICso) Hill) using the Screener Software (Genedata).
Table 5 depicts the IC50 values of selected examples in biochemical KAT6A and KAT6B3 assays.

[2] = tested on: ESR1 transcription (luciferase signal in MVLN cells); experiment: Repression of ESR1 transcription, luciferase reporter in MVLN cells; type: cell-based; details: inhibition of luciferase signal in MVLN cells, arithmetic mean
Text: Repression of ESR1 Transcription Upon Treatment of Cells with Compounds
KAT6A controls transcription of the ESR1 gene in breast cancer cells. Compound treatment that interferes with this mechanism was quantified using MVLN cells. These cells constitutively express the ER and are stably transfected with the luciferase (LUC) reporter gene and the corresponding hormone responsive element derived from the 5′-flanking region of the Xenopus Vitellogenin A2 gene (Pons et al., 1990, Demirpense et al., 1993, Joyeux et al., 1993). The repressive effect on ERα transcription activity of a test chemical is directly related to the luciferase measured in the lysate of treated MVLN cells.
Each sample was prepared as duplicate and rim wells were excluded. For luciferase signal determination 100 μl of a 1:1 mixture of Steadylite plus (Perkin Elmer; 6016759) and assay medium was added after 24 h for 15 minutes and measured in Victor X3 (Perkin Elmer). To exclude any effects caused by cell loss during the treatment, cell density was determined using Alamar Blue (Invitrogen; DAL1100). Prior to the luciferase measurement 10 μl Alamar Blue were added to each well and the plates were incubated for 2 h in the incubator. Then fluorescence was measured with Victor X3 (Perkin Elmer) at 530 nm/590 nm.

[3] = tested on: ZR-75-1 cells; experiment: Proliferation assay ZR-75-1 (Alamar Blue, 144 h); type: cell-based; details: arithmetic mean, read-out: ZR75-1 proliferation assay, EC50 [M] (arithmetic mean)
Text: (§1) Proliferation Assays for Compound Characterization
(§2) For compound characterization cell survival assays were routinely run in two cell lines. ZR-75-1 is a breast carcinoma cell line containing a focal KAT6A amplification and high KAT6A protein expression. Proliferation of this cell line is inhibited upon treatment with KAT6A inhibitors. As a negative control cell line MDA-MB-436 were used. These cells carry a […] deletion of the KAT6A gene, have a low KAT6A protein expression and are not growth inhibited upon treatment with KAT6A inhibitors.
(§3) For measurements cell lines were plated at the below indicated concentration per […] in 96-well plates in a humidified incubator at 37° C. and 5% CO2.
ZR-75-1 (ATCC, CRL-1500; breast carcinoma); 3000 cells per well; culture medium: RPMI 1640 (Biochrom #FG 1215) medium containing 2.5% FBS (Biochrom #S0615).
(§4) 24 hours later, cells were treated with compounds (stock solution, 10 mM in DMSO) using the HP D300 Digital Dispenser in a concentration range of 2.0×10E-5 M to 2.0×10E-9 M in a single-dot curve with 9 dilutions and a DMSO concentration of 0.2%. Each sample was prepared as triplicate and rim wells were excluded. Plates were incubated at 37° C. and 5% CO2 for 144 h. Cell viability was measured by adding 10 μL of Alamar Blue Reagent (Invitrogen #DAL 1100) and plates were incubated for 2 h at 37° C. and 5% CO2. Fluorescence was measured at 590 nm wavelength with a Tecan Spark or Victor X3 MTP-Reader (PerkinElmer).

[4] = tested on: MDA-MB-436 cells; experiment: Proliferation assay MDA-MB-436, negative control cell line (Alamar Blue, 144 h); type: cell-based; details: arithmetic mean
Text: as §1, §2, §3
MDA-MB-436 (CLS, 300278; breast adenocarcinoma); 3000 cells per well; culture medium: DMEM/Ham's F12 (Biochrom #FG 4815) medium containing 2.5% FBS (Biochrom #S0615).
as §4

[5] = Homo sapiens, MDA-MB-436, 144 h

| Compound | IC50 [1] [µM] | IC50 ([2]; Homo sapiens, MVLN) [µM] | EC50 ([3]; Homo sapiens, ZR-75-1, 144 h) [M] | EC50 [4, 5] [µM] | IC50 [2] [µM] | EC50 [3] [M] | EC50 [4] [µM] |
| --- | --- | --- | --- | --- | --- | --- | --- |
| CCCNc1ncc(Br)cc1S(=O)(=O)NC(=O)c1cc2ccc(N(C)C)cc2o1 [Example 150, N-[5-bromo-2-(propylamino)pyridine-3-sulfonyl]-6-(dimethylamino)-1-benzofuran-2-carboxamide] | 0.429 | 8.29 | > 2e-05 | 10.2 | – | – | – |
| CCNc1ccc2cc(C(=O)NS(=O)(=O)c3cccc4ccc(C)nc34)oc2c1 [Example 220, 6-(Ethylamino)-N-(2-methylquinoline-8-sulfonyl)-1-benzofuran-2-carboxamide] | 0.188 | 0.716 | 8.91e-07 | > 20 | – | – | – |
| Cc1cccnc1CS(=O)(=O)NC(=O)c1cc2ccc(N(C)C)cc2o1 [Example 105, 6-(Dimethylamino)-N-[(3-methylpyridin-2-yl)methanesulfonyl]-1-benzofuran-2-carboxamide] | 1.96 | 11.6 | 3.72e-06 | > 20 | – | – | – |
| CN(C)c1cc2oc(C(=O)NS(=O)(=O)c3ccccc3-c3ccccc3)cc2cc1F [Example 199, N-([1,1′-biphenyl]-2-ylsulfonyl)-6-(dimethylamino)-5-fluorobenzofuran-2-carboxamide] | 2.65 | 9.4 | > 2e-05 | > 20 | – | – | – |
| CCc1ccccc1S(=O)(=O)NC(=O)c1cc2ccc(N(C)C)cc2o1 [Example 104, 6-(Dimethylamino)-N-(2-ethylbenzene-1-sulfonyl)-1-benzofuran-2-carboxamide] | 1.1 | 3.19 | 3e-06 | > 20 | – | – | – |
| CCOc1c(Cl)cccc1S(=O)(=O)NC(=O)c1cc2ccc(N(C)C)cc2o1 [Example 122, N-(3-Chloro-2-ethoxybenzene-1-sulfonyl)-6-(dimethylamino)-1-benzofuran-2-carboxamide] | 0.252 | 0.453 | 9.44e-07 | > 20 | – | – | – |
| CCCOc1cccc(C)c1S(=O)(=O)NC(=O)c1cc2ccc(N(C)C)cc2o1 [Example 133, 6-(Dimethylamino)-N-(2-methyl-6-propoxybenzene-1-sulfonyl)-1-benzofuran-2-carboxamide] | 0.325 | 0.323 | 4.88e-07 | > 20 | – | – | – |
| CC(C)Oc1ccccc1S(=O)(=O)NC(=O)c1cc2c(F)cc(N(C)C)cc2o1 [Example 109, 6-(Dimethylamino)-4-fluoro-N-{2-[(propan-2-yl)oxy]benzene-1-sulfonyl}-1-benzofuran-2-carboxamide] | 0.00709 | 0.00967 | 3.7e-08 | > 20 | – | – | – |
| CCOc1ccccc1S(=O)(=O)NC(=O)c1cc2cc(Cl)c(N(C)C)cc2o1 [Example 188, 5-Chloro-6-(dimethylamino)-N-((2-ethoxyphenyl)sulfonyl)benzofuran-2-carboxamide] | 10.3 | > 20 | > 2e-05 | > 20 | – | – | – |
| CC(C)c1ccc(OCc2ccccc2)c(S(=O)(=O)NC(=O)c2cc3ccc(N(C)C)cc3o2)c1 [Example 176, N-(2-Benzyloxy-5-isopropyl-phenyl)sulfonyl-6-(dimethylamino)benzofuran-2-carboxamide] | 0.0128 | 0.0348 | 9.71e-08 | 19.5 | – | – | – |
| Cc1ccc2cccc(S(=O)(=O)NC(=O)c3cc4c(F)cc(N(C)C)cc4o3)c2n1 [Example 108, 6-(Dimethylamino)-4-fluoro-N-(2-methylquinoline-8-sulfonyl)-1-benzofuran-2-carboxamide] | 0.0046 | 0.0091 | 8.07e-08 | > 18.6 | – | – | – |
| COCCN(C)c1ccc2cc(C(=O)NS(=O)(=O)c3ccc(C)cc3-c3ccccc3)oc2c1 [Example 214, 6-[(2-Methoxyethyl)(methyl)amino]-N-(5-methyl[1,1′-biphenyl]-2-sulfonyl)-1-benzofuran-2-carboxamide] | 0.732 | 5.53 | 6.14e-06 | > 20 | – | – | – |
| CN1Cc2cccc(S(=O)(=O)NC(=O)c3cc4ccc(N(C)C)cc4o3)c2C1=O [Example 95, 6-(Dimethylamino)-N-(2-methyl-3-oxo-2,3-dihydro-1H-isoindole-4-sulfonyl)-1-benzofuran-2-carboxamide] | 0.15 | 0.488 | 7.18e-07 | > 20 | – | – | – |
| CC1CCCN1c1ccc2cc(C(=O)NS(=O)(=O)c3ccccc3-c3ccccc3)oc2c1 (racemic) [Example 44, N-([1,1′-Biphenyl]-2-sulfonyl)-6-[2-methylpyrrolidin-1-yl]-1-benzofuran-2-carboxamide (rac)] | 3.17 | > 20 | > 2e-05 | > 20 | – | – | – |
| CCOc1ccccc1S(=O)(=O)NC(=O)c1cc2ccc(N(C)CCOC)cc2o1 [Example 215, N-(2-Ethoxybenzene-1-sulfonyl)-6-[(2-methoxyethyl)(methyl)amino]-1-benzofuran-2-carboxamide] | 2.66 | 11.8 | 1.01e-05 | > 20 | – | – | – |
| Cc1ccc2cccc(S(=O)(=O)NC(=O)c3cc4c(F)cc(N(C)C)cc4o3)c2n1 [Example 227] | 0.004 | – | – | – | 0.014 | 6.85e-08 | > 14.9 |
| CN(C)c1ccc2cc(C(=O)NS(=O)(=O)c3cc(Br)cnc3Cl)oc2c1 [Example 136] | 0.796 | 15.4 | 5.54e-06 | > 20 | – | – | – |
| CCOc1ccc(Br)cc1S(=O)(=O)NC(=O)c1cc2ccc(N(C)CCOC)cc2o1 [Example 213, N-(5-Bromo-2-ethoxybenzene-1-sulfonyl)-6-[(2-methoxyethyl)(methyl)amino]-1-benzofuran-2-carboxamide] | – | 9.88 | 8.48e-06 | > 20 | – | – | – |
| CN(c1ccc2cc(C(=O)NS(=O)(=O)c3ccccc3-c3ccccc3)oc2c1)C1CCCC1 [Example 46, N-([1,1′-Biphenyl]-2-sulfonyl)-6-[cyclopentyl(methyl)amino]-1-benzofuran-2-carboxamide] | – | > 20 | > 2e-05 | > 20 | – | – | – |
